We go through one substance from patent publication US10618937B2, “Method of treating Alzheimer's disease” (INDUSTRY-ACADEMIC COOPERATION FOUNDATION GYEONGSANG …, priority 2016, dated 2020).

One assay deals with APP/PS1 model mice. Nature of the assay: Y-maze test. The format is in vivo. As to conditions: 45 days after IP administration. As to the method: Male C57BL/6J wild type mice and double transgenic B6.Cg-Tg (APPswe, PSENdE9) 85Dbo Mmjax (APP/PS1) AD-model mice were obtained from Jackson Laboratories (Bar Harbor, Me., USA). The brains of the double transfected mice express Swedish mutation-containing chimeric mouse-human amyloid precursor protein (Mo/HuAPP695swe) and mutant human presenilin 1 protein (PS1-dE9). The mice were fed with an unlimited supply of food and water at an animal breeding ground of a university at a temperature of 23° C., at the relative humidity of 60±10% and in the black and light cycle of 12 h/12 h. When the mice reached 10 months of age, they were transferred to the injection and behavior observation room for 1 week for purification. The maintenance and treatment for mice were performed according to the guidelines of the Animal Ethics Committee (IACUC) issued by Department of Biology, Division of Applied Life Science of Gyeongsang National University in Korea. Experiments according to the present disclosure were conducted according to the guidelines approved by the guidelines of the Animal Ethics Committee (IACUC) issued by Department of Biology, Division of Applied Life Science of Gyeongsang National University in Korea (approval ID: 125). […]
Alteration behavior ratio (%) was calculated as [set of overlapping triplets (consecutive entry into 3 different arms)/total entry−2]×100. […]

The next assay deals with APP/PS1 model group. The experiment in a line: In vivo electrophysiology and LTP analysis (hippocampus slice). As to conditions: hippocampus slice CA1, after pairing stimuli, treated APP/PS1 model group. On the set-up: species or system mice. As to the method:
A hippocampus slice was prepared from adult mice to examine the CA1 circuit from the cross-sectional schaffer collateral (SC) input in the hippocampus slice ([…] thickness). Briefly, after anesthetizing the mice with isoflurane, the brains were quickly cooled by transcardiac perfusion with ice-cold cross-cerebrospinal fluid (CSF). After the brain was removed, the brains were stored in ice-cold sucrose-artificial CSF. A coronal section was cultured in artificial CSF at a temperature of 35° C. for 30 minutes, and cultured in artificial CSF at room temperature (23° C. to 25° C.) for 1 to 4 hours before being transferred to the recording chamber. […]
LTP experiments were performed at 27° C. to 29° C. […] Stimulation was applied to the shaper-side branch (SC) pathway using a concentrated bipolar electrode located at […] from the soma of the recorded cells. […] In the LTP experiment, baseline EPSCs were measured for 3 min before applying the pairing stimuli (2 Hz, 2-minute stimulation, and post-synaptic depolarization to 0 mV). […]

On to “RGPCG (adiponectin receptor-activating peptide) [5AA1]”, for which, in the assay with APP/PS1 model mice, the spontaneous alteration result is recorded as “restored”. For the same substance, in the assay on APP/PS1 model group, the “level of EPSC enhancement (LTP)” value was “almost the same as that of the normal group”.
